Source: ChEMBL document CHEMBL1255230, “Chemical inhibitor of nonapoptotic cell death with therapeutic potential for ischemic brain injury” (Nat Chem Biol, 2005)
The source made the active and inactive calls. The calls are words filed in the database; no cut-off is given here.

Key:
[1] = Inhibition of death receptor signaling mediated necroptotic cell death in human Jurkat cell deficient in FADD assessed as cytoprotection after 30 hrs by in presence of TNFalpha; type: cell-based
[2] = test system: U-937; assay: Inhibition of apoptosis in human U937 cells assessed as cell viability after 48 hrs by ATP based viability assay in presence of TNFalpha and CHX; type: functional
[3] = Inhibition of death receptor signaling mediated necroptotic cell death in human U937 cells assessed as cell viability after 48 hrs by ATP based viability assay in presence of TNFalpha and zVAD-fmk; conditions: U-937
[4] = Inhibition of death receptor signaling mediated necroptotic cell death in mouse L929 cells assessed as decreased levels of PE-conjugated autophagy marker LC3-II after 24 hrs by Western blot method in presence of TNFalpha; type: cell-based
[5] = Inhibition of death receptor signaling mediated necroptotic cell death in mouse 3T3 cells assessed as decreased levels of PE-conjugated autophagy marker LC3-II after 24 hrs by Western blot method in presence of TNFalpha and zVAD-fmk; type: cell-based; conditions: NIH3T3
[6] = Inhibition of death receptor signaling mediated necroptotic cell death in mouse 3T3 cells assessed as decreased levels of PE-conjugated autophagy marker LC3-II after 24 hrs by Western blot method in presence of rapamycin; type: cell-based; conditions: NIH3T3
[7] = Inhibition of death receptor signaling mediated necroptotic cell death in human Jurkat cells deficient in FADD and expressing RIP kinase assessed as cell viability after 48 hrs by FACS in presence of AP1510, zVAD-fmk; type: cell-based
[8] = Inhibition of death receptor signaling mediated necroptotic cell death in human Jurkat cells deficient in FADD and expressing RIP K45M mutant assessed as cell viability after 48 hrs by FACS in presence of AP1510, zVAD-fmk; type: cell-based
[9] = Inhibition of death receptor signaling mediated necroptotic cell death in human Jurkat cells deficient in FADD and expressing RIP kinase domain assessed as cell viability after 48 hrs by FACS in presence of AP1510, zVAD-fmk; type: cell-based
[10] = Inhibition of death receptor signaling mediated necroptotic cell death in human Jurkat cells deficient in FADD and expressing RIP kinase assessed as cell viability after 48 hrs by FACS in presence of AP1510; type: cell-based
[11] = Inhibition of death receptor signaling mediated necroptotic cell death in human U937 cell assessed as cell viability after 72 hrs by ATP based viability assay in presence of TNFalpha and zVAD.fmk; conditions: U-937
[12] = Inhibition of death receptor signaling mediated necrotic cell death in human Jurkat cell assessed as cell viability after 30 hrs by ATP based viability assay in presence of FasL, CHX, zVAD.fmk
[13] = Inhibition of death receptor signaling mediated necrotic cell death in human Jurkat cell expressing FADD fused to FKBP12-based dimerization domain (JK-FF)assessed as cell viability after 48 hrs by ATP based viability assay in presence of AP20187 and zVAD.fmk
[14] = Inhibition of death receptor signaling mediated necrotic cell death in mouse 3T3 cells assessed as cell viability after 24 hrs by ATP based viability assay in presence of FasL and zVAD.fmk; conditions: NIH3T3
[15] = Inhibition of death receptor signaling mediated necrotic cell death in SV40 transformed mouse MEF cells assessed as cell viability after 16 hrs by ATP based viability assay in presence of TNFalpha, CHX and zVAD.fmk
[16] = Inhibition of death receptor signaling mediated necrotic cell death in rat IEC18 cells assessed as cell viability in presence of TNFalpha and zVAD.fmk; type: cell-based
[17] = Inhibition of death receptor signaling mediated necroptotic cell death in human Jurkat cell deficient in FADD assessed as changes in cell size after 24 hrs by forward and side scatter FACS analysis in presence of TNFalpha; type: cell-based
[18] = test system: Jurkat; assay: Induction of proliferative capacity in necroptotic human Jurkat cell deficient in FADD assessed as cell viability; type: functional, cell-based
[19] = Inhibition of death receptor signaling mediated necroptotic cell death in human Jurkat cell deficient in FADD assessed as inhibition of mitochondrial dysfunction after 24 hrs by in presence of TNFalpha; type: cell-based
[20] = Inhibition of death receptor signaling mediated apoptosis in human Jurkat cell assessed as inhibition of plasma membrane permeability after 24 hrs by in presence of FasL, CHX and zVAD.fmk; type: cell-based
[21] = Inhibition of death receptor signaling mediated apoptosis in human Jurkat cell assessed as inhibition of mitochondrial dysfunction after 24 hrs by in presence of FasL, CHX and zVAD.fmk; type: cell-based
[22] = test system: Jurkat; assay: Effect on apoptosis in human Jurkat cell assessed as cytoplasm condensation by electron microscopy in presence of FasL and CHX; type: functional, cell-based
[23] = test system: Jurkat; assay: Effect on apoptosis in human Jurkat cell assessed as nuclear fragmentation by electron microscopy in presence of FasL and CHX; type: functional, cell-based
[24] = test system: Jurkat; assay: Inhibition of necrosis in human Jurkat cells assessed as organelle swelling by bright field microscopy in presence of FasL, CHX and zVAD-fmk; type: functional, cell-based
[25] = test system: Jurkat; assay: Inhibition of necrosis in human Jurkat cells assessed as early loss of plasma membrane integrity by bright field microscopy in presence of FasL, CHX and zVAD-fmk; type: functional, cell-based
[26] = test system: Jurkat; assay: Inhibition of necrosis in human Jurkat cells assessed as appearance of translucent cytosol in presence of FasL, CHX and zVAD-fmk; type: functional, cell-based
[27] = test system: Jurkat; assay: Inhibition of necrosis in human Jurkat cells deficient in FADD assessed as inhibition of appearance of translucent cytosol in presence of TNFalpha; type: functional, cell-based
[28] = Inhibition of death receptor signaling mediated necroptotic cell death in human Jurkat cells deficient in FADD and expressing RIP K45M mutant assessed as cell viability after 48 hrs by FACS in presence of AP1510; type: cell-based
[29] = test system: Mus musculus; assay: Inhibition of necroptosis in icv dosed mouse middle cerebral artery occlusion induced ischemic injury model assessed as reduction of infarct volume; type: functional, organism-based
[30] = test system: Jurkat; assay: Effect on plasma membrane integrity in human Jurkat cells; type: functional, cell-based
[31] = test system: Jurkat; assay: Effect on cell cycle in human Jurkat cells assessed as cells in sub-G1 phase; type: functional, cell-based
[32] = test system: Jurkat; assay: Effect on cell cycle in human Jurkat cells assessed as cells in G1 phase; type: functional, cell-based
[33] = test system: Jurkat; assay: Effect on cell cycle in human Jurkat cells assessed as cells in S phase; type: functional, cell-based
[34] = test system: Jurkat; assay: Effect on cell cycle in human Jurkat cells assessed as cells in G2/M phase; type: functional, cell-based
[35] = test system: NIH3T3; assay: Effect on actin cytoskeleton in mouse 3T3 cells after 24 hrs by phalloidin-TRITC staining in presence of TNFalpha and zVAD-fmk; type: functional, cell-based
[36] = test system: NIH3T3; assay: Effect on morphology of nucleus in mouse 3T3 cells after 24 hrs by TO-PRO-3 staining in presence of TNFalpha and zVAD-fmk; type: functional, cell-based
[37] = test system: NIH3T3; assay: Effect on morphology of endoplasmic reticulum in mouse 3T3 cells after 24 hrs by anti-KDEL immunofluorescence in presence of TNFalpha and zVAD-fmk; type: functional, cell-based
[38] = test system: Jurkat; assay: Effect on cell cycle in human Jurkat cells deficient in FADD assessed as cells in G1 phase relative to control; type: functional
[39] = test system: Jurkat; assay: Effect on cell cycle in human Jurkat cells deficient in FADD assessed as cells in S phase relative to control; type: functional
[40] = test system: Jurkat; assay: Effect on cell cycle in human Jurkat cells deficient in FADD assessed as cells in G2/M phase in presence of TNFalpha relative to control; type: functional

SMILES: CN1C(=O)C(Cc2c[nH]c3ccccc23)NC1=S (stereo not given) [NECROSTATIN]
- inhibition [1]: Active
- inhibition [2]: inactive
- inhibition [3]: Active
- inhibition [4]: Active
- inhibition [5]: Active
- inhibition [6]: Active
- inhibition [7]: Active
- inhibition [8]: Active
- inhibition [9]: Active
- inhibition [10]: Active
- inhibition [11]: Dose-dependent effect
- inhibition [12]: Active
- inhibition [13]: Active
- inhibition [14]: Active
- inhibition [15]: Active
- inhibition [16]: Active
- inhibition [17]: Active
- Activity [18]: Active
- inhibition [19]: Active
- inhibition [20]: Active
- inhibition [21]: Active
- Activity [22]: inactive
- Activity [23]: inactive
- inhibition [24]: Active
- inhibition [25]: Active
- inhibition [26]: Active
- inhibition [27]: Active
- inhibition [28]: Active
- inhibition [29]: Active
- Activity [30]: inactive
- Activity [31]: inactive
- Activity [32]: inactive
- Activity [33]: inactive
- Activity [34]: inactive
- Activity [35]: inactive
- Activity [36]: inactive
- Activity [37]: inactive
- Activity [38]: 41.5%
- Activity [39]: 45.1%
- Activity [40]: 12.1%
